# Measured values taken from patent US5013546A, “Methods for modulating antibody production in treating patients with AIDS, ARC and other diseases” (Imreg, Inc., priority 1990, dated 1991).
# Key:
# [1] = test system: immunoglobulin-producing cells (plaque forming cells) in PWM-activated PBLs; test: Modified RHPFC assay, amplifier added after B cells were potentiated (7th day); format: cell-based, human; conditions: amplifier added after potentiation
# Description: The foregoing protocol 1 was then altered to test the in vitro effect of adding amplifiers Beta-1.0 or Beta-1.11 to the culture after B cells had already been potentiated (differentiated). Therefore, no amplifier was mixed with the PWM-activated cells at the outset, as in Example 1. Instead, at the stage where 1.12% agarose and Protein A-SRBC reagent are added (here, the 7th day), 25 ul of different amplifier dilutions is also added to the various replicates. The protocol was otherwise the same.
# The procedure of Example 6 was repeated with the modified protocol just described.
# [2] = test system: patient with common variable immunodeficiency, insufficient immunoglobulin production; test: Titration of amplifier dosage, patient with common variable immunodeficiency; format: in vivo, human; conditions: 20 to 80 pg intradermal biweekly for eight weeks, 80 kg patient; before 350 ml/dl
# Description: A patient suffers from common variable immunodeficiency, and they have an lowered serum immunoglobulin (IgG) level ([…]), indicative to the attending physician of insufficient immunoglobulin production. The physician considers it therapeutically desirable to raise the patient's level of immunoglobulin production.
# (§1) The patient weighs 80 kg. The physician therefore administers intradermal injections of 20 to 80 pg of ZB-4 (0.25 to 1 pg/kg of body weight) in sterile saline, biweekly, for eight weeks, and then retests. (The appropriate amount is determined by trial and error, and is subject to the physician's discretion. It is believed that 1 pg/kg is an appropriate starting point for such trial and error determination in the case of insufficient Ig production.)
# [3] = test system: patient with AIDS or ARC, excessive immunoglobulin production; test: Titration of amplifier dosage, AIDS or ARC patient with elevated serum IgG; format: in vivo, human; conditions: 20 to 80 pg intradermal biweekly for eight weeks, 80 kg patient; before greater than 1400 mg/dl
# Description: A patient suffers from AIDS or ARC, and they have an elevated serum immunoglobulin (IgG) level (greater than 1400 mg/dl), indicative to the attending physician of excessive immunoglobulin production. The physician considers it therapeutically desirable to lower the patient's level of immunoglobulin production.
# as §1, with “The physician assays the patient's immunoglobulin response by the protocol of Examples 1-4, or alternative as in Example using ZB-4 (Beta-1.11). The patient” for “The patient”, “believed that 0.25 pg/kg is” for “believed that 1 pg/kg is”, “case of excessive Ig production.)” for “case of insufficient Ig production.)”
# [4] = test system: immunoglobulin-producing cells (plaque forming cells) in pokeweed mitogen-exposed PBLs; test: RHPFC assay, PWM-stimulated PBLs of a normal subject cultured 6 days with amplifier; format: cell-based, human; conditions: averaged data
# Description: In order to ascertain whether modulation of B-cell response is appropriate in a particular subject, and to titrate administration of amplifier appropriately for that subject, it is desirable to have a method for assaying the subject's immunoglobulin response. The method described below cultures mitogen-exposed cells in the presence and absence of added amplifier. Then the formation of plaque forming cells (PFCs) is assayed by a reverse hemolytic assay to determine whether and to what extent amplifier modulates formation of PFCs. A dose-dependent amplifier modulation of PFC formation is observed. The PFC assay described hereinafter is a modification of a conventional technique; it is believed that PFC assays have not hitherto been utilized to assess effects of the immunomodulators described herein.
# Peripheral blood cell populations (hereinafter PBLs) from test subjects are prepared to isolate mononuclear cells, using conventional methods. The PBLs are adjusted to 10^6 cells/ml in RPM-1640 medium with 25 mM HEPES and L-glutamine (Whittaker Bioproducts), which has been supplemented with 10% heat-inactivated defined fetal bovine serum (Hy-Clone Labs.), 2% PSN Antibiotic (GIBCO Labs., Grand Island, N.Y.) (100×), and 1% extra L-glutamine (GIBCO Labs.) (100×). The resulting PBL mixture is set aside in an ice bucket (4° C.). […]
# [5] = per 1 fg of the peptide; cited from earlier work
# [6] = test system: patients with AIDS or ARC with elevated IgG and IgA; test: AIDS/ARC patients, effect of amplifier on serum Ig levels; format: in vivo, human; conditions: 50 pg biweekly, protocol of Example 10
# Description: A group of 14 patients with AIDS or ARC were treated biweekly with a standard dosage of IMREG-1 (Beta-1.0), until six doses were given. All 14 initially had elevated IgG production and 13 also had elevated IgA production.
# Data was averaged for the 14 high-IgG and 13 high-IgA patients.
# A group of patients with AIDS or ARC are treated biweekly with 50 pg of ZB-4, according to the protocol of Example 10.
# A group of patients with AIDS or ARC are treated biweekly with 50 pg of Beta-1.11, according to the protocol of Example 10.
# A group of patients with AIDS or ARC are treated biweekly with 50 pg of Beta-1.12, according to the protocol of Example 10.
substance,measurement,setting,value
Tyr-Gly [ZB-4],concentration at maximum PFC factor,[1],300 to 400 pM
same,maximum PFC factor relative to control,[1],slightly less than the control
same,minimum PFC factor,[1],approximately 35 % of the control PFC factor
same,serum immunoglobulin level (IgG) after treatment,[2],710 mg/dL
same,serum immunoglobulin (IgG) level after treatment,[3],1280 mg/dL
same,maximum PFC factor relative to control,[4]; at 100 to 150 pM,from about half again to double the control PFC factor
same,minimum PFC factor relative to control,[4]; between 1 and 10 pM,from about a quarter to a half the control PFC factor
same,amount of Beta-1.0 with approximately the same immunological activity as 1 fg,[5],5-10 fg
same,effect on Ig levels,[6],Substantially the same results are observed as were observed in Example 10
Tyr-Gly-Gly [Beta-1.12],amount of Beta-1.0 with approximately the same immunological activity as 1 fg,[5],5-10 fg
same,effect on Ig levels,[6],Substantially the same results are observed as were observed in Example 10
